{
  "source": "patent US8895752B2",
  "about": "“Alkylsulfonyl-substituted thiazolide compounds” (priority 2007, dated 2014)",
  "key": {"HBV": {"tested_on": "HBV", "assay": "HBV antiviral assay in confluent 2.2.15 cell cultures (HBV DNA, quantitative blot hybridization)", "assay_type": "cell-based, Hepatitis B Virus", "settings": "Hepatitis B virus", "procedure": "EC50, EC90 and CC50 values (±standard deviations [S.D.]) were calculated by linear regression analysis using data combined from all treated cultures (Korba and Gerin, 1992; Okuse et al., 2005). […] Selectivity index (S.I.) was calculated as CC50/EC90 for HBV assays and CC50/EC50 for HCV assays. EC90 values were used for calculation of the S.I. in HBV assays since at least a 3-fold depression of HBV DNA levels is typically required to achieve statistical significance in this assay system (Korba and Gerin, 1992)."}, "[1]": {"assay": "Cytotoxicity by neutral red dye uptake in 2.2.15 cells", "settings": "human", "description": "(§1) HBV antiviral assays were conducted as previous described (Korba and Gerin, 1992).\n(§2) EC50, EC90 and CC50 values (±standard deviations [S.D.]) were calculated by linear regression analysis using data combined from all treated cultures (Korba and Gerin, 1992; Okuse et al., 2005). […] Selectivity index (S.I.) was calculated as CC50/EC90 for HBV assays and CC50/EC50 for HCV assays. EC90 values were used for calculation of the S.I. in HBV assays since at least a […] depression of HBV DNA levels is typically required to achieve statistical significance in this assay system (Korba and Gerin, 1992). For combination treatments, EC50, EC90, CC50 and S.I. are presented for the first compound listed. The molar ratio of the compounds in each combination is also indicated."}, "2.2.15 cells": {"tested_on": "2.2.15 cells", "assay": "Cytotoxicity by neutral red dye uptake in 2.2.15 cells", "settings": "rapidly dividing cultures", "description": "as §1, §2"}, "Wild-type HBV": {"tested_on": "Wild-type HBV", "assay": "5-day transient transfection assay in Huh7 cells, intracellular HBV RI by Southern blot", "assay_type": "cell-based, Hepatitis B Virus", "settings": "Hepatitis B virus, Huh-7"}, "HBV Mutant L180M/M204V": {"tested_on": "HBV Mutant L180M/M204V", "assay": "5-day transient transfection assay in Huh7 cells, intracellular HBV RI by Southern blot", "assay_type": "cell-based, Hepatitis B Virus", "settings": "Hepatitis B virus, Huh-7", "description": "(§3) Activity against LMV-resistant (Allen et al., 1998) and ADV-resistant (Angus et al., 2003) HBV mutants was performed in a 5-day assay using a transient transfection method as previously described (Iyer et al., 2004). Antiviral activity was determined by quantitative Southern blot hybridization of intracellular HBV DNA replication intermediates (HBV RI)."}, "HBV Mutant L180M": {"tested_on": "HBV Mutant L180M", "assay": "5-day transient transfection assay in Huh7 cells, intracellular HBV RI by Southern blot", "assay_type": "cell-based, Hepatitis B Virus", "settings": "Hepatitis B virus, Huh-7", "description": "as §3"}, "HBV Mutant M204I": {"tested_on": "HBV Mutant M204I", "assay": "5-day transient transfection assay in Huh7 cells, intracellular HBV RI by Southern blot", "assay_type": "cell-based, Hepatitis B Virus", "settings": "Hepatitis B virus, Huh-7", "description": "as §3"}, "HBV Mutant M204V": {"tested_on": "HBV Mutant M204V", "assay": "5-day transient transfection assay in Huh7 cells, intracellular HBV RI by Southern blot", "assay_type": "cell-based, Hepatitis B Virus", "settings": "Hepatitis B virus, Huh-7", "description": "as §3"}, "HBV Mutant N236T": {"tested_on": "HBV Mutant N236T", "assay": "5-day transient transfection assay in Huh7 cells, intracellular HBV RI by Southern blot", "assay_type": "cell-based, Hepatitis B Virus", "settings": "Hepatitis B virus, Huh-7", "description": "as §3"}, "HBV RNA": {"tested_on": "HBV RNA", "assay": "Intracellular HBV RNA by quantitative northern blot hybridization in 2.2.15 cells", "assay_type": "cell-based, Hepatitis B Virus", "description": "(§4) Cultures of 2.2.15 cells were treated under standard procedures and semi-quantitative EIA-based analysis of HBV proteins was performed as previously described (Korba and Gerin, 1995), except that HBeAg was analyzed ETI-EBK Plus® (DiaSorin, Inc., Stillwater, Minn. USA). Samples were diluted (2 to 10-fold) to bring levels into the dynamic response ranges of the EIA's. HBsAg, and HBeAg were analyzed from culture medium samples and HBcAg was analyzed from intracellular lysates. Intracellular HBV RNA was assessed by quantitative northern blot hybridization (Korba and Gerin, 1995)."}, "HBeAg": {"tested_on": "HBeAg", "assay": "Semi-quantitative EIA of HBV proteins in 2.2.15 culture medium", "assay_type": "cell-based, Hepatitis B Virus", "description": "as §4"}, "HBsAg": {"tested_on": "HBsAg", "assay": "Semi-quantitative EIA of HBV proteins in 2.2.15 culture medium", "assay_type": "cell-based, Hepatitis B Virus", "description": "as §4"}, "HBcAg": {"tested_on": "HBcAg", "assay": "Semi-quantitative EIA of HBV proteins in 2.2.15 intracellular lysates", "assay_type": "cell-based, Hepatitis B Virus", "description": "as §4"}, "[2]": {"tested_on": "HCV replicon, sub-genomic CON1, genotype 1b", "assay": "3-day HCV replicon assay in AVA5 cells (intracellular HCV RNA, blot hybridization)", "assay_type": "cell-based, Hepatitis C Virus", "settings": "Hepatitis C virus, Ava5, 72 h; Genotype 1b replicon, 3 days; first compound listed for combinations", "description": "(§5) Antiviral activity of test compounds was assessed in a 3-day assay using the stably-expressing HCV replicon cell line, AVA5 (sub-genomic CON1, genotype 1b) (Blight et al., 2000) maintained as sub-confluent cultures on 96-well plates as previously described (Okuse et al., 2005). Antiviral activity was determined by blot hybridization analysis of intracellular HCV RNA (normalized to the level of cellular B-actin RNA in each culture sample) and cytotoxicity was assessed by neutral red dye uptake after 3 days of treatment. Additional studies were performed using Huh7 cells containing another HCV replicon, H/FL-Neo, a genotype 1a full length construct (Blight et al., 2003). For studies involving human serum, standard culture medium (which contains 10% fetal bovine serum) and assay conditions were maintained.\nas §2"}, "[3]": {"assay": "Cytotoxicity by neutral red dye uptake in AVA5 cells", "assay_type": "cell-based", "settings": "human, Genotype 1b replicon"}, "[4]": {"tested_on": "HCV replicon H/FL-Neo, genotype 1a full length", "assay": "HCV replicon assay in Huh7 cells containing H/FL-Neo", "assay_type": "cell-based, Hepatitis C Virus", "description": "as §5, §2"}, "[5]": {"assay": "Cytotoxicity by neutral red dye uptake in Huh7 cells containing H/FL-Neo", "assay_type": "cell-based", "settings": "human; Genotype 1a replicon"}, "HCV replication": {"tested_on": "HCV replication", "assay": "HCV replicon assay, 6 days total duration, NTZ monotherapy pre-treatment and combination therapy", "assay_type": "cell-based", "settings": "Hepatitis C virus, 144 h, first named drug for combinations", "description": "as §5, with “Antiviral activity of test compounds was assessed in a 3-day assay using the stably-expressing” left out\nas §2"}, "[6]": {"settings": "oral 500 mg tablet; cited from earlier work"}, "[7]": {"settings": "Hepatitis C virus, Huh-7, Genotype 1a replicon"}},
  "note": "Where two headings read alike, the source gives them in different places.",
  "data": [
    {"smiles": "CC(=O)Oc1ccccc1C(=O)Nc1ncc([N+](=O)[O-])s1", "note": "[NTZ, nitazoxanide]", "values": [
      {"measurement": "EC50", "setting": "HBV; read-out: Intracellular HBV RI EC50", "value": "0.59 ± 0.07", "unit": "µM"},
      {"measurement": "EC50", "setting": "HBV; 2.2.15 cells, Table 3 experiment, read-out: HBV R.I. EC50", "value": "0.73 ± 0.06", "unit": "µM"},
      {"measurement": "EC90", "setting": "HBV; 2.2.15 cells, Table 3 experiment, read-out: HBV R.I. EC90", "value": "2.2 ± 0.3", "unit": "µM"},
      {"measurement": "EC50", "setting": "HBV; 2.2.15 cells, Table 3 experiment, read-out: Virion production EC50", "value": "0.19 ± 0.02", "unit": "µM"},
      {"measurement": "EC90", "setting": "HBV; 2.2.15 cells, Table 3 experiment, read-out: Virion production EC90", "value": "0.58 ± 0.04", "unit": "µM"},
      {"measurement": "EC50", "setting": "HBV; 2.2.15 cells, nine daily doses, read-out: Extracellular virion DNA EC50", "value": "0.12 ± 0.02", "unit": "µM"},
      {"measurement": "CC50 at 9 days", "setting": "[1]", "value": "> 100", "unit": "µM"},
      {"measurement": "cytotoxicity in rapidly dividing cultures of 2.2.15 cells", "setting": "2.2.15 cells", "value": "20 ± 1.3", "unit": "µM"},
      {"measurement": "EC50", "setting": "Wild-type HBV", "value": "0.21 ± 0.03", "unit": "µM"},
      {"measurement": "EC90", "setting": "Wild-type HBV; Wild-type, Huh7 transient transfection", "value": "0.77 ± 0.09", "unit": "µM"},
      {"measurement": "EC50", "setting": "HBV Mutant L180M/M204V", "value": "0.18 ± 0.02", "unit": "µM"},
      {"measurement": "EC90", "setting": "HBV Mutant L180M/M204V", "value": "0.72 ± 0.09", "unit": "µM"},
      {"measurement": "EC50", "setting": "HBV Mutant L180M", "value": "0.23 ± 0.03", "unit": "µM"},
      {"measurement": "EC90", "setting": "HBV Mutant L180M", "value": "0.8 ± 0.09", "unit": "µM"},
      {"measurement": "EC50", "setting": "HBV Mutant M204I", "value": "0.31 ± 0.05", "unit": "µM"},
      {"measurement": "EC90", "setting": "HBV Mutant M204I", "value": "1 ± 0.2", "unit": "µM"},
      {"measurement": "EC50", "setting": "HBV Mutant M204V", "value": "0.15 ± 0.02", "unit": "µM"},
      {"measurement": "EC90", "setting": "HBV Mutant M204V", "value": "0.7 ± 0.08", "unit": "µM"},
      {"measurement": "EC50", "setting": "HBV Mutant N236T", "value": "0.28 ± 0.03", "unit": "µM"},
      {"measurement": "EC90", "setting": "HBV Mutant N236T", "value": "0.85 ± 0.1", "unit": "µM"},
      {"measurement": "effect on intracellular HBV RNA (Northern blot hybridization)", "setting": "HBV RNA", "value": "did not induce a reduction"},
      {"measurement": "EC50", "setting": "HBeAg; read-out: HBeAg EC50, 2.2.15 cells", "value": "0.26 ± 0.02", "unit": "µM"},
      {"measurement": "EC90", "setting": "HBeAg; read-out: HBeAg EC90, 2.2.15 cells", "value": "1.3 ± 0.1", "unit": "µM"},
      {"measurement": "EC50", "setting": "HBsAg; read-out: HBsAg EC50, 2.2.15 cells", "value": "0.22 ± 0.03", "unit": "µM"},
      {"measurement": "EC90", "setting": "HBsAg; read-out: HBsAg EC90, 2.2.15 cells", "value": "1 ± 0.1", "unit": "µM"},
      {"measurement": "EC50", "setting": "HBcAg; read-out: HBcAg EC50, 2.2.15 cells", "value": "1.1 ± 0.1", "unit": "µM"},
      {"measurement": "EC90", "setting": "HBcAg; read-out: HBcAg EC90, 2.2.15 cells", "value": "3 ± 0.2", "unit": "µM"},
      {"measurement": "EC50", "setting": "[2]", "value": "0.21 ± 0.03", "unit": "µM"},
      {"measurement": "EC90", "setting": "[2]", "value": "0.93 ± 0.11", "unit": "µM"},
      {"measurement": "CC50 at 3 days", "setting": "[3]", "value": "38 ± 1.8", "unit": "µM"},
      {"measurement": "antiviral activity against full length genotype 1a replicon compared with AVA5 cells (genotype 1b)", "setting": "[4]", "value": "equivalent"},
      {"measurement": "EC50", "setting": "[4]; [7]", "value": "0.33 ± 0.05", "unit": "µM"},
      {"measurement": "EC90", "setting": "[4]; [7]", "value": "1.1 ± 0.1", "unit": "µM"},
      {"measurement": "CC50 at 3 days", "setting": "[5]", "value": "49 ± 1.5", "unit": "µM"},
      {"measurement": "EC50", "setting": "HCV replication", "value": "0.2 ± 0.02", "unit": "µM"},
      {"measurement": "EC90", "setting": "HCV replication", "value": "0.92 ± 0.1", "unit": "µM"},
      {"measurement": "detection in plasma", "setting": "[6]", "value": "not detected"}
    ]}
  ]
}
